Common to all, as to assay type: cell-based
For assay [1], the system named is SKBR3 (PI3Kα wild type) cells. The assay is described as follows: CellTiter-Glo 2.0 luminescent cell viability assay, 72 hours, SKBR3 cells. Conditions: Homo sapiens, SK-BR-3, 72 h, SKBR3 (PI3Kα wild type) cells, CellTiter-Glo, approximately 72 hours; read-out: SKBR3 (WT) Viability IC50. In short, it runs like this:
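Viability measured via CTG luminescence following roughly 72 hours of compound exposure at 37° C. Dosing used a 10 um starting concentration diluted 1:4 over 10 points; percent-of-vehicle data fitted with a variable-slope four-parameter model for IC50.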
In general terms: In ATP-based viability assays light output follows the ATP content of the culture.

In assay [2] the test system is MKN1 (PI3Kα E545K mutant) cells. The assay is described as follows: CellTiter-Glo 2.0 luminescent cell viability assay, 72 hours, MKN1 cells. The following applies: Homo sapiens, MKN-1; MKN1 (PI3Kα E545K mutant) cells, CellTiter-Glo, approximately 72 hours; read-out: MKN1 (E545K) Viability IC50. How it is done: This Example illustrates that exemplary compounds of the present invention decrease the viability of cells.
The ability of a compound of Formula (I) to decrease the viability of cells was measured using CellTiter-Glo 2.0 (CTG) Luminescent Cell Viability Assay (#G9241) obtained from Promega (Madison, WI).
To prepare assay plates for viability assays, cells were trypsinized, resuspended in fresh media, and viable cells were counted utilizing trypan blue exclusion. T47D, SKBR3, or MKN1 cells were seeded at 1000 cells in 30 μl per well in a solid white flat bottom 384 cell culture plate (Perkin Elmer #6007680) and incubated at 37° C. overnight.
Assay day 1, cells were dosed using an Echo Liquid Handler (Beckman Coulter) with compounds at a 10 um starting concentration and serially diluted (1:4) for a total of 10 concentrations. Cells were incubated for approximately 72 hours with the compounds (solubilized in DMSO) at 37° C. After 72 hours of treatment, cell plates were equilibrated to room temperature before adding 15 μl of CTG to each well, plates were then covered in aluminum foil to protect from light, incubated at room temperature for 30 minutes on a microtiter plate shaker, and luminescence readings were collected using a CLARIOstar microplate reader (BMG Labtech, Germany). Percent of vehicle control values were plotted as log (inhibitor) vs. response-Variable slope (four parameters) for curve fitting and IC50 values were determined using XLfit.

In assay [3] the test system is T47D (PI3Kα H1047R mutant) cells. Put plainly: CellTiter-Glo 2.0 luminescent cell viability assay, 72 hours, T47D cells. The following applies: Homo sapiens, T47D, 72 h, T47D (PI3Kα H1047R mutant) cells, CellTiter-Glo, approximately 72 hours; read-out: T47D (H1047R mutant) Viability IC50. In short, it runs like this:
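Viability was measured by CellTiter-Glo 2.0 luminescence after approximately 72 h of compound exposure at 37° C. Plating was 1000 cells per well the day before dosing, with ten 1:4 dilutions from a 10 µM top concentration. Values as percent of vehicle were fitted by variable-slope log(inhibitor) regression to give IC50.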

The test system of assay [4] is SKBR3 (PI3Kα wild type) cells. Put plainly: Inhibition of pAKT formation, alphaLISA SureFire Ultra AKT 1/2/3 (pS473), SKBR3 cells. Conditions: Homo sapiens, SK-BR-3; Inhibition of pAKT in SKBR3 (PI3Kα wild type) cells; read-out: SKBR3 (WT) pAKT IC50 (nM) (H1047R mutant) IC50. In short, it runs like this: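 Cells seeded in HBSS (SKBR3 12,000/well, MKN1 24,000/well) and dosed immediately, 10-point 1:4 series from […], for about 1 h or 24 h at 37 °C. pAKT S473 by alphaLISA after lysis; signal normalised to alpelisib and DMSO controls, IC50 by four-parameter fit.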
On the technique in general: Bead proximity is the source of the signal in Alpha formats.

Assay [5] concerns T47D (PI3Kα H1047R mutant) cells. Put plainly: Inhibition of pAKT formation, alphaLISA SureFire Ultra AKT 1/2/3 (pS473), T47D cells. The following applies: Homo sapiens, T47D, T47D (PI3Kα H1047R mutant) cells; inhibition of pAKT (pS473) formation; approximately one hour or 24 hours treatment; read-out: T47D pAKT (H1047R mutant) IC50. Put shortly:
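AKT Ser473 phosphorylation was quantified by alphaLISA SureFire Ultra after roughly 1 h or 24 h compound exposure at 37 °C. Cells were T47D (12,000/well in HBSS), treated with a 10-point 1:4 series starting at 10.4 μM. Percent of control used alpelisib background and DMSO reference, and IC50 came from four-parameter logistic fitting.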

Assay [6] deals with MKN1 (PI3Kα E545K mutant) cells. Put plainly: Inhibition of pAKT formation, alphaLISA SureFire Ultra AKT 1/2/3 (pS473), MKN1 cells. The following applies: Homo sapiens, MKN-1; MKN1 (PI3Kα E545K mutant) cells; inhibition of pAKT (pS473) formation; approximately one hour or 24 hours treatment; read-out: MKN1 (E545K) pAKT IC50. As for the experimental part: The ability of a compound of Formula (I) to inhibit the formation of pAKT was measured using alphaLISA Surefire Ultra AKT 1/2/3 (pS473) Assay Kit (#ALSU-PAKT-B50K) was obtained from Perkin Elmer (Waltham, MA).
To prepare assay plates for pAKT alphaLISA assays, cells were trypsinized, resuspended in fresh media, and viable cells were counted utilizing trypan blue exclusion. Prior to seeding, cells were washed with PBS and resuspended in HBSS (Gibco, #14025092). T47D (12,000/w), SKBR3(12,000/w), or MKN1(24,000/w) cells were seeded at 12 μl per well in a solid white flat bottom 384 cell culture plate (Perkin Elmer #6007680).
Immediately after seeding, cells were dosed using an Echo Liquid Handler (Beckman Coulter) with compounds at a […] starting concentration and serially diluted (1:4) for a total of 10 concentrations. […] Cells were incubated with the compounds (solubilized in DMSO) for approximately one hour or 24 hours at 37° C. After one hour (or 24 hours) of treatment, cells were lysed with 3 μl of the 5× lysis buffer (provided and incubated at room temperature for 15 min on a microtiter plate shaker). Once cells were sufficiently lysed, 7.5 μl of the acceptor bead mix (made using the manufacturers recommended dilutions) was added to each well and left on the microtiter plate shaker for 1 min prior to incubating plates at room temperature for one hour, in the absence of light. After one hour of incubation with the acceptor bead mix, 7.5 μl of the donor bead mix (made using the manufacturers recommended dilutions) was added to each well and left on the microtiter plate shaker for 1 min prior to incubating plates at room temperature overnight in the absence of light. Plates were then imaged the following day using a CLARIOstar microplate reader (BMG Labtech, Germany).
Percent of control values were calculated by subtracting the average signal from the positive control (alpelisib) treated wells from all treated wells (including DMSO control wells) and then divided by the average signal from the vehicle DMSO treated control wells. Percent of vehicle control values were plotted as log (inhibitor) vs. response-Variable slope (four parameters) for curve fitting and IC50 values were determined using XLfit.
Key: N.D. =not determined

Bounds are passed on as bounds.

In the case of `CNC(=O)c1ccccc1NC(C)c1cc(C)cn2c(=O)cc(N3CCCCC3)nc12` (stereo not drawn) [Example 3-14, N-methyl-2-((1-(7-methyl-4-oxo-2-(piperidin-1-yl)-4H-pyrido[1,2-a]pyrimidin-9-yl)ethyl)amino)benzamide], the IC50 (usually the concentration at which inhibition is half-maximal) in assay [1] is over 10 µM; in assay [2], over 10 µM; in assay [3] it was 1.36 µM; in assay [4] it was over 10000 nM; in assay [5] it was 4.54 µM; in assay [6], 2.91 µM.
As for `Cc1cc(C(C)Nc2ccccc2C(=O)N(C)C)c2nc(N3CCCCC3)cc(=O)n2c1` (stereo not drawn) [Example 3-15, N,N-dimethyl-2-((1-(7-methyl-4-oxo-2-(piperidin-1-yl)-4H-pyrido[1,2-a]pyrimidin-9-yl)ethyl)amino)benzamide], the IC50 in assay [1] is over 10 µM; in assay [2], over 10 µM; in assay [3], over 10 µM; in assay [4], over 10000 nM; in assay [5], over 10 µM; in assay [6], over 10 µM.
For the molecule `Cc1cc(C(C)Nc2ccccc2O)c2nc(N3CCCCC3)cc(=O)n2c1` (stereo not drawn) [Example 3-16, 9-(1-((2-hydroxyphenyl)amino)ethyl)-7-methyl-2-(piperidin-1-yl)-4H-pyrido[1,2-a]pyrimidin-4-one], the half-inhibitory concentration (IC50) was 9.3 µM in assay [1]; over 10 µM in assay [2]; over 10 µM in assay [3]; over 10000 nM in assay [4]; over 10 µM in assay [5]; over 10 µM in assay [6].
As for `Cc1cc(C(C)Nc2cccc3cn[nH]c23)c2nc(N3CCCCC3)cc(=O)n2c1` (stereo not drawn) [Example 3-17, 9-(1-((1H-indazol-7-yl)amino)ethyl)-7-methyl-2-(piperidin-1-yl)-4H-pyrido[1,2-a]pyrimidin-4-one], the IC50 in assay [1] is 9.77 µM; in assay [2], over 10 µM; in assay [3], over 10 µM; in assay [4], over 10000 nM; in assay [5], over 10 µM; in assay [6] it was over 10 µM.
For the molecule `Cc1cc(C(C)Nc2ccccc2C(O)C(F)(F)F)c2nc(N3CCCCC3)cc(=O)n2c1` (stereo not drawn) [Example 3-18, 7-methyl-2-(piperidin-1-yl)-9-(1-((2-(2,2,2-trifluoro-1-hydroxyethyl)phenyl)amino)ethyl)-4H-pyrido[1,2-a]pyrimidin-4-one], the IC50 was over 10 µM in assay [1]; over 10 µM in assay [2]; 4.2 µM in assay [3]; over 10000 nM in assay [4]; 1.39 µM in assay [5]; over 10 µM in assay [6].
Regarding `Cc1cc(C(C)Nc2ccc(Cl)nc2C(=O)O)c2nc(N3CCCCC3)cc(=O)n2c1` (stereo not drawn) [Example 3-19, 6-chloro-3-((1-(7-methyl-4-oxo-2-(piperidin-1-yl)-4H-pyrido[1,2-a]pyrimidin-9-yl)ethyl)amino)picolinic acid], the IC50 in assay [1] was over 10 µM; in assay [2] it was over 10 µM; in assay [3], 0.367 µM; in assay [4], 2800 nM; in assay [5] it was 0.0383 µM; in assay [6], 1.19 µM.
In the case of `Cc1cc(C(C)Nc2ccccc2C(F)(F)CO)c2nc(N3CCCCC3)cc(=O)n2c1` (stereo not drawn) [Example 3-20, 9-(1-((2-(1,1-difluoro-2-hydroxyethyl)phenyl)amino)ethyl)-7-methyl-2-(piperidin-1-yl)-4H-pyrido[1,2-a]pyrimidin-4-one], the IC50 is over 10 µM in assay [1]; over 10 µM in assay [2]; over 10 µM in assay [3]; over 10000 nM in assay [4]; 1.12 µM in assay [5]; over 10 µM in assay [6].
Regarding `C=CC(=O)NC(C)c1cc(C)cn2c(=O)cc(N3CCCCC3)nc12` (stereo not drawn) [Example 4-1, N-(1-(7-methyl-4-oxo-2-(piperidin-1-yl)-4H-pyrido[1,2-a]pyrimidin-9-yl)ethyl)acrylamide], the IC50 was over 10 µM in assay [1]; over 10 µM in assay [2]; over 10 µM in assay [3]; over 10000 nM in assay [4]; over 10 µM in assay [5]; over 10 µM in assay [6].
For `C=CC(=O)N(C)C(C)c1cc(C)cn2c(=O)cc(N3CCCCC3)nc12` (stereo not drawn) [Example 4-2, N-methyl-N-(1-(7-methyl-4-oxo-2-(piperidin-1-yl)-4H-pyrido[1,2-a]pyrimidin-9-yl)ethyl)acrylamide], the IC50 is over 10 µM in assay [1]; over 10 µM in assay [2]; over 10 µM in assay [3]; over 10000 nM in assay [4]; over 10 µM in assay [5]; over 10 µM in assay [6].
Turning to `Cc1cc(C(C)NC(=O)CCl)c2nc(N3CCCCC3)cc(=O)n2c1` (stereo not drawn) [Example 4-3, 2-chloro-N-(1-(7-methyl-4-oxo-2-(piperidin-1-yl)-4H-pyrido[1,2-a]pyrimidin-9-yl)ethyl)acetamide], the IC50 in assay [1] is 4.84 µM; in assay [2], 6.14 µM; in assay [3], over 10 µM; in assay [4] it was over 10000 nM; in assay [5] it was over 10 µM; in assay [6], over 10 µM.
Take `Cc1cc(C(C)N(C)C(=O)CCl)c2nc(N3CCCCC3)cc(=O)n2c1` (stereo not drawn) [Example 4-4, 2-chloro-N-methyl-N-(1-(7-methyl-4-oxo-2-(piperidin-1-yl)-4H-pyrido[1,2-a]pyrimidin-9-yl)ethyl)acetamide]: the IC50 in assay [1] was 3.86 µM; in assay [2], 4.29 µM; in assay [3], over 10 µM; in assay [4], over 10000 nM; in assay [5] it was over 10 µM; in assay [6] it was over 10 µM.
On to `CC(Nc1ccccc1C(=O)O)c1cc(C2CC2)cn2c(=O)cc(N3CCCCC3)nc12` (stereo not drawn) [Example 5-3, 2-((1-(7-cyclopropyl-4-oxo-2-(piperidin-1-yl)-4H-pyrido[1,2-a]pyrimidin-9-yl)ethyl)amino)benzoic acid], for which the half-maximal inhibitory concentration (IC50) was over 10 µM in assay [1]; over 10 µM in assay [2]; over 10 µM in assay [3]; 3540 nM in assay [4]; 0.0321 µM in assay [5]; over 10 µM in assay [6].
